# System: upside-down jellyfish, family Cassiopeidae
# Experiment: In vivo field study: perceived stinging sensation after contact with upside-down jellyfish
# Conditions: for Sting score, Left calf: skin location left calf; for Average Sting Score: average over tested skin locations; for Sting score, Lower arm, left: perceived sting: 0 no sting, compound in SPF15 TeekaTan oil-in-water sunscreen base, skin location lower arm; for Reduction of the stinging sensation (in words): summary of the field study; for Sting score, Upper arm, left: skin location upper arm
# Method: An in-vivo field study was performed using upside-down jellyfish, family Cassiopeidae. Rubidium iodide and dl-menthol were compared to lanthanide salts and another alkali salt, cesium iodide, for their ability to reduce the dermal irritation following contact with stinging Cnidaria. The base formulation was a commercial SPF15 “TeekaTan™” chemical oil-in-water sunscreen. The null was bare skin. The test subjects reported their perceived stinging sensation from the venomous cassiosomes as no sting (score 0), mild sting (score 1), definite sting (score 2).
# [1] = 0 no sting, 1 mild sting, 2 definite sting, SPF15 sunscreen base
SMILES,"Sting score, Left calf [1]","Sting score, Left cheek (face) (0 no sting, 1 mild sting, 2 definite sting, SPF15 sunscreen base, skin location left cheek (face))","Sting score, Left side of chest, underarm (0 no sting, 1 mild sting, 2 definite sting, SPF15 sunscreen base, skin location left side of chest, underarm)","Sting score, Left side of lips, upper and lower (0 no sting, 1 mild sting, 2 definite sting, SPF15 sunscreen base, skin location left side of lips, upper and lower)","Sting score, Right arm joint (0 no sting, 1 mild sting, 2 definite sting, SPF15 sunscreen base, skin location right arm joint)","Sting score, Right cheek (face) (0 no sting, 1 mild sting, 2 definite sting, SPF15 sunscreen base, skin location right cheek (face))","Sting score, Right side of chest, underarm (0 no sting, 1 mild sting, 2 definite sting, SPF15 sunscreen base, skin location right side of chest, underarm)","Sting score, Stomach (0 no sting, 1 mild sting, 2 definite sting, SPF15 sunscreen base, skin location stomach)",Average Sting Score [1],"Sting score, Lower arm, left (1 mild sting, 2 definite sting)",Reduction of the stinging sensation (in words),"Sting score, Upper arm, left [1]","Sting score, Left arm joint (0 no sting, 1 mild sting, 2 definite sting, SPF15 sunscreen base, skin location left arm joint)"
"CC(C)[C@@H]1CC[C@@H](C)C[C@H]1O (racemic) [DL-Menthol, DL menthol]",0,0,0,0,0.75,0,0,0,0.23,0,second most effective compound tested,,
"[Cs+].[I-] [CsI, cesium iodide, reference compound]",,,,,,,,,2.00,,did not appreciably reduce the stinging sensation,2,
"[Cl][Nd]([Cl])[Cl] [NdCl3, reference compound]",,,,,,,,,2.00,2,,,
"[Cl][Pr]([Cl])[Cl] [PrCl3, reference compound]",,,,,,,,,1.00,2,,0,
"[I-].[Rb+] [RuI, rubidium iodide]",0,,,,,,,,0.00,0,,0,0
